Reference: patent US8653092B2, “Tetrahydro-pyrido-pyrimidine derivatives” (Novartis AG, priority 2010, dated 2014)
Like-named read-outs stand apart in the source and are kept apart here.

Tests used:
PI3K alpha = PI3K alpha (Homo sapiens (Human), UniProt P42336); assay: Enzymatic PI3K alpha isoform inhibition (lipid kinase, Kinase-Glo luminescence); format: biochemical; conditions: enzymatic assay
PI3K delta = PI3K delta (Homo sapiens (Human), UniProt O00329); assay: Enzymatic PI3K delta isoform inhibition (lipid kinase, Kinase-Glo luminescence); format: biochemical
Chain of PI3K delta (O00329 other isoform, or with tags, fused parts or gaps linker GGGGGG): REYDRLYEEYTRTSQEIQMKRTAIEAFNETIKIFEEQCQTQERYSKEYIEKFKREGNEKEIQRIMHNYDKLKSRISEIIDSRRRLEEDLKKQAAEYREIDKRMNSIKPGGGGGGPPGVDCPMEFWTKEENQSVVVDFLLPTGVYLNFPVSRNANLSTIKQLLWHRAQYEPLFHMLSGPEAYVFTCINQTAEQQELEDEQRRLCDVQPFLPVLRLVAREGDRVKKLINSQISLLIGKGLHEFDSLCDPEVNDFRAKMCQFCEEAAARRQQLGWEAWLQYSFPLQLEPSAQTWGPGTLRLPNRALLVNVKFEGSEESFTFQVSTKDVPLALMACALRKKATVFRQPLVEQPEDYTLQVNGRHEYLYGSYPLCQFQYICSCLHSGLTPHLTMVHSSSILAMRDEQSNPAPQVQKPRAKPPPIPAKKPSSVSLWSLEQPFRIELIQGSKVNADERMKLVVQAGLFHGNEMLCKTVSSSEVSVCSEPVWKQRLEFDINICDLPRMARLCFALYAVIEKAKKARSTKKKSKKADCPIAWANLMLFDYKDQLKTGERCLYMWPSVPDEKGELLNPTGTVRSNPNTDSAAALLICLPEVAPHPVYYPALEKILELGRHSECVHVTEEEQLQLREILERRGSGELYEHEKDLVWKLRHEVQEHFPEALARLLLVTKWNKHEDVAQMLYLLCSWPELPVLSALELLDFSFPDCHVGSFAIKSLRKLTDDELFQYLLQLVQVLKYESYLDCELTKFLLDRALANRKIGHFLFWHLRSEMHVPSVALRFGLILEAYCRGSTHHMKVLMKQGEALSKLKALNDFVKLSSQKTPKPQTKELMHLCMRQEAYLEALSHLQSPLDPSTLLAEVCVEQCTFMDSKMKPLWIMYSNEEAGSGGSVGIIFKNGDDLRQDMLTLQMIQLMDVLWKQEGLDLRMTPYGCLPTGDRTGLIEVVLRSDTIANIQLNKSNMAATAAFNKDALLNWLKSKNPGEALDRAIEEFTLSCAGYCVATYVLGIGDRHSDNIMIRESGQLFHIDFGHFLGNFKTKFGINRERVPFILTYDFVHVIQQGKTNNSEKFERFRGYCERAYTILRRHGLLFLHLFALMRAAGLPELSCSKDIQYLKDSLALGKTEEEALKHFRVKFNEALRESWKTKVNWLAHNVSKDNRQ

Chain of PI3K alpha (P42336 other isoform, or with tags, fused parts or gaps): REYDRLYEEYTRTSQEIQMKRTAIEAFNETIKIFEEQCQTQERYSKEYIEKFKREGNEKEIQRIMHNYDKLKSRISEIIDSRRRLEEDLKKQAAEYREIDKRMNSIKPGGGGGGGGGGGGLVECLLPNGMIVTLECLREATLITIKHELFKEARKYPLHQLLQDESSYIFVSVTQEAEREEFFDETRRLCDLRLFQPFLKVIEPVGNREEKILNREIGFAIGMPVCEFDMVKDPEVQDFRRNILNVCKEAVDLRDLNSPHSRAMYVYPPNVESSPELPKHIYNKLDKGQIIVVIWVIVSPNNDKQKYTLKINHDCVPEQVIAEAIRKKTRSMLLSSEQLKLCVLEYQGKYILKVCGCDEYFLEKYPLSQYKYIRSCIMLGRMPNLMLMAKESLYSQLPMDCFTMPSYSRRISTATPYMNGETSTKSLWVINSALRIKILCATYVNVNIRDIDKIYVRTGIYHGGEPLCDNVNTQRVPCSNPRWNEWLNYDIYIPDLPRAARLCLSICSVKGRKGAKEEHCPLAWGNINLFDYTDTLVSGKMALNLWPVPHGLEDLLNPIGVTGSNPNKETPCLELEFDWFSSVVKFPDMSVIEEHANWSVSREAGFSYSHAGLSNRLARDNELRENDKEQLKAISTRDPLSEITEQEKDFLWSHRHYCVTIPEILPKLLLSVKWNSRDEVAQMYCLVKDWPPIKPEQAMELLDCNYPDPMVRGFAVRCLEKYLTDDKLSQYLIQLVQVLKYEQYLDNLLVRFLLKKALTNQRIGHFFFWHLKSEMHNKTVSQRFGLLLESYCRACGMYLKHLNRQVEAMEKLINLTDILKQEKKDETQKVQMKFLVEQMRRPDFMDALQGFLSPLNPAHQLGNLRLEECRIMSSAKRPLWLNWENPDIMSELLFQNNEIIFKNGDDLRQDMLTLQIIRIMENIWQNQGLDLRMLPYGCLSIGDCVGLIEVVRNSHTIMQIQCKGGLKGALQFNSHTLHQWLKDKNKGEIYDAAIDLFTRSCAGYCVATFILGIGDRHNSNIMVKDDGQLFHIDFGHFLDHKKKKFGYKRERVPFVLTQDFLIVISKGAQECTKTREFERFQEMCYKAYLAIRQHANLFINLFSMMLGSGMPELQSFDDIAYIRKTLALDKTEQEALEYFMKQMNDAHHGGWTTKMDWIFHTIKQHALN

Which IC50 (PI3K alpha) does the source give for `COc1ncc(N2CCc3ncnc(O[C@H]4CCN(C(=O)C5CCOC(C)(C)C5)C4)c3C2)cc1C` (stereo partly drawn) [Example 38, (2,2-Dimethyl-tetrahydro-pyran-4yl)-{(S)-3-[6-(6-Methoxy-5-methyl-pyridin-3-yl)-5,6,7,8-tetrahydro-pyrido[4,3-d]pyrimidin-4-yloxy]-pyrrolidin-1-yl}-methanone] here?
The IC50 was 3310 nM.

And the IC50 (PI3K delta; enzymatic assay)?
The IC50 was 16 nM.

How did the IC50 (PI3K alpha) turn out when `COc1ncc(N2CCc3ncnc(O[C@H]4CCN(C(=O)c5ccon5)C4)c3C2)cc1C` [Example 33, Isoxazol-3-yl-{(S)-3-[6-(6-Methoxy-5-methyl-pyridin-3-yl)-5,6,7,8-tetrahydro-pyrido[4,3-d]pyrimidin-4-yloxy]-pyrrolidin-1-yl}-methanone] was run?
Its IC50 is 1970 nM.

And the IC50 (PI3K delta; enzymatic assay)?
The IC50 was 18 nM.

What does the source list for `COc1ncc(N2CCc3ncnc(O[C@H]4CCN(C(=O)c5coc(C)n5)C4)c3C2)cc1C` [Example 14, {(S)-3-[6-(6-Methoxy-5-methyl-pyridin-3-yl)-5,6,7,8-tetrahydro-pyrido[4,3-d]pyrimidin-4-yloxy]-pyrrolidin-1-yl}-(2-methyl-oxazol-4-yl)-methanone]?
IC50 (PI3K alpha): 1830 nM; IC50 (PI3K delta; enzymatic assay): 13 nM

Which results are given for `COc1ncc(N2CCc3ncnc(O[C@H]4CCN(C(=O)c5c[nH]cn5)C4)c3C2)cc1C(F)(F)F` [Example 45, (1H-Imidazol-4-yl)-{(S)-3-[6-(6-methoxy-5-trifluoromethyl-pyridin-3-yl)-5,6,7,8-tetrahydro-pyrido[4,3-d]pyrimidin-4-yloxy]-pyrrolidin-1-yl}-methanone]?
IC50 (PI3K alpha): 860 nM; IC50 (PI3K delta; enzymatic assay): 18 nM

Which results are given for `COc1ncc(N2CCc3ncnc(O[C@H]4CCN(C(=O)c5oc(C)nc5C)C4)c3C2)cc1C(F)(F)F` [Example 40, (2,4-Dimethyl-oxazol-5-yl)-{(S)-3-[6-(6-methoxy-5-trifluoromethyl-pyridin-3-yl)-5,6,7,8-tetrahydro-pyrido[4,3-d]pyrimidin-4-yloxy]-pyrrolidin-1-yl}-methanone]?
IC50 (PI3K alpha): 260 nM; IC50 (PI3K delta; enzymatic assay): 6 nM

How did the IC50 (PI3K alpha) turn out when `COc1ncc(N2CCc3ncnc(O[C@H]4CCN(C(=O)c5ccc(=O)[nH]c5)C4)c3C2)cc1C` [Example 19, 5-{(S)-3-[6-(6-Methoxy-5-methyl-pyridin-3-yl)-5,6,7,8-tetrahydro-pyrido[4,3-d]pyrimidin-4-yloxy]-pyrrolidine-1-carbonyl}-1H-pyridin-2-one] was run?
Its IC50 is 3060 nM.

And the IC50 (PI3K delta; enzymatic assay)?
Its IC50 is 33 nM.

With `COc1ncc(N2CCc3ncnc(N[C@H]4CCN(C(=O)C5CCOCC5)C4)c3C2)cc1C#N` [Example 69, 2-Methoxy-5-{4-[(S)-1-(tetrahydro-pyran-4-carbonyl)-pyrrolidin-3-ylamino]-7,8-dihydro-5H-pyrido[4,3-d]pyrimidin-6-yl}-nicotinonitrile] as the compound, how does the IC50 (PI3K alpha) read?
The IC50 was 56 nM.

What about the IC50 (PI3K delta; enzymatic assay) of the same compound?
The IC50 was 3 nM.

Which results are given for `COc1ncc(N2CCc3ncnc(O[C@H]4CCN(C(=O)N5CCC(O)CC5)C4)c3C2)cc1C(F)(F)F` [Example 87, (4-Hydroxy-piperidin-1-yl)-{(S)-3-[6-(6-methoxy-5-trifluoromethyl-pyridin-3-yl)-5,6,7,8-tetrahydro-pyrido[4,3-d]pyrimidin-4-yloxy]-pyrrolidin-1-yl}-methanone]?
IC50 (PI3K alpha): 452 nM; IC50 (PI3K delta; enzymatic assay): 12 nM

Which results are given for `CCC(=O)N1CC[C@H](Oc2ncnc3c2CN(c2cnc(OC)c(C#N)c2)CC3)C1` [Example 64, 2-Methoxy-5-[4-((S)-1-propionyl-pyrrolidin-3-yloxy)-7,8-dihydro-5H-pyrido[4,3-d]pyrimidin-6-yl]-nicotinonitrile]?
IC50 (PI3K alpha): 2330 nM; IC50 (PI3K delta; enzymatic assay): 32 nM

`COc1ncc(N2CCc3ncnc(O[C@H]4CCN(C(=O)c5ccncc5)C4)c3C2)cc1C(F)(F)F` [Example 47, {(S)-3-[6-(6-Methoxy-5-trifluoromethyl-pyridin-3-yl)-5,6,7,8-tetrahydro-pyrido[4,3-d]pyrimidin-4-yloxy]-pyrrolidin-1-yl}-pyridin-4-yl-methanone] was tested. Which IC50 (PI3K alpha) did it give?
Its IC50 is 656 nM.

And the IC50 (PI3K delta; enzymatic assay)?
The IC50 was 25 nM.

With `COc1ncc(N2CCc3ncnc(O[C@H]4CCN(C(=O)C5CCOCC5)C4)c3C2)c(OC)n1` [Example 2, {(S)-3-[6-(2,4-Dimethoxy-pyrimidin-5-yl)-5,6,7,8-tetrahydro-pyrido[4,3-d]pyrimidin-4-yloxy]-pyrrolidin-1-yl}-(tetrahydro-pyran-4-yl)-methanone] as the compound, how does the IC50 (PI3K alpha) read?
The IC50 was 3390 nM.

And the IC50 (PI3K delta; enzymatic assay)?
The IC50 was 9 nM.

With `COc1ncc(N2CCc3ncnc(O[C@H]4CCN(c5ncccn5)C4)c3C2)cc1C(F)(F)F` [Example 66, 6-(6-Methoxy-5-trifluoromethyl-pyridin-3-yl)-4-((S)-1-pyrimidin-2-yl-pyrrolidin-3-yloxy)-5,6,7,8-tetrahydro-pyrido[4,3-d]pyrimidine] as the compound, how does the IC50 (PI3K alpha) read?
The IC50 was 1280 nM.

And the IC50 (PI3K delta)?
The IC50 was 14 nM.

With `COc1ncc(N2CCc3ncnc(O[C@H]4CCN(C(=O)C5CC(OC)C5)C4)c3C2)cc1C` (stereo partly drawn) [Example 15, (3-Methoxy-cyclobutyl)-{(S)-3-[6-(6-methoxy-5-methyl-pyridin-3-yl)-5,6,7,8-tetrahydro-pyrido[4,3-d]pyrimidin-4-yloxy]-pyrrolidin-1-yl}-methanone] as the compound, how does the IC50 (PI3K alpha) read?
The IC50 was 1630 nM.

What about the IC50 (PI3K delta; enzymatic assay) of the same compound?
Its IC50 is 14 nM.

With `COc1ncc(N2CCc3ncnc(O[C@H]4CCN(C(=O)c5ccnn5C)C4)c3C2)cc1C(F)(F)F` [Example 42, {(S)-3-[6-(6-Methoxy-5-trifluoromethyl-pyridin-3-yl)-5,6,7,8-tetrahydro-pyrido[4,3-d]pyrimidin-4-yloxy]-pyrrolidin-1-yl}-(2-methyl-2H-pyrazol-3-yl)-methanone] as the compound, how does the IC50 (PI3K alpha) read?
The IC50 was 863 nM.

And the IC50 (PI3K delta; enzymatic assay)?
Its IC50 is 13 nM.

How did the IC50 (PI3K alpha) turn out when `COc1ncc(N2CCc3ncnc(O[C@H]4CCN(C(=O)c5ocnc5C)C4)c3C2)cc1C` [Example 18, {(S)-3-[6-(6-Methoxy-5-methyl-pyridin-3-yl)-5,6,7,8-tetrahydro-pyrido[4,3-d]pyrimidin-4-yloxy]-pyrrolidin-1-yl}-(4-methyl-oxazol-5-yl)-methanone] was run?
The IC50 was 871 nM.

What about the IC50 (PI3K delta; enzymatic assay) of the same compound?
Its IC50 is 33 nM.

What does the source list for `COc1ncc(N2CCc3ncnc(O[C@H]4CCN(C(=O)C5CCOCC5)C4)c3C2)cc1C#N` [Example 3, 2-Methoxy-5-{4-[(S)-1-(tetrahydro-pyran-4-carbonyl)-pyrrolidin-3-yloxy]-7,8-dihydro-5H-pyrido[4,3-d]pyrimidin-6-yl}-nicotinonitrile]?
IC50 (PI3K alpha): 2390 nM; IC50 (PI3K delta; enzymatic assay): 15 nM

What does the source list for `COc1ncc(N2CCc3ncnc(O[C@H]4CCN(C(=O)c5cccnc5)C4)c3C2)cc1C(F)(F)F` [Example 44, {(S)-3-[6-(6-Methoxy-5-trifluoromethyl-pyridin-3-yl)-5,6,7,8-tetrahydro-pyrido[4,3-d]pyrimidin-4-yloxy]-pyrrolidin-1-yl}-pyridin-3-yl-methanone]?
IC50 (PI3K alpha): 1190 nM; IC50 (PI3K delta; enzymatic assay): 16 nM

What does the source list for `COc1ncc(N2CCc3ncnc(O[C@H]4CCN(C(=O)c5nnc(C)o5)C4)c3C2)cc1C(F)(F)F` [Example 51, {(S)-3-[6-(6-Methoxy-5-trifluoromethyl-pyridin-3-yl)-5,6,7,8-tetrahydro-pyrido[4,3-d]pyrimidin-4-yloxy]-pyrrolidin-1-yl}-(5-methyl-[1,3,4]oxadiazol-2-yl)-methanone]?
IC50 (PI3K alpha): 912 nM; IC50 (PI3K delta; enzymatic assay): 44 nM

Which IC50 (PI3K alpha) does the source give for `COc1ncc(N2CCc3ncnc(N[C@H]4CCN(C(=O)[C@H]5CC[C@H](O)CC5)C4)c3C2)cc1C(F)(F)F` (single isomer, unassigned) [Example 76] here?
The IC50 was 106 nM.

And the IC50 (PI3K delta; enzymatic assay)?
Its IC50 is 7 nM.

How did the IC50 (PI3K alpha) turn out when `Nc1ncc(N2CCc3ncnc(O[C@H]4CCN(C(=O)C5CCOCC5)C4)c3C2)cc1C(F)(F)F` [Example 57, {(S)-3-[6-(6-Amino-5-trifluoromethyl-pyridin-3-yl)-5,6,7,8-tetrahydro-pyrido[4,3-d]pyrimidin-4-yloxy]-pyrrolidin-1-yl}-(tetrahydro-pyran-4-yl)-methanone] was run?
The IC50 was 590 nM.

And the IC50 (PI3K delta; enzymatic assay)?
The IC50 was 25 nM.

With `COc1ncc(N2CCc3ncnc(O[C@H]4CCN(C(=O)C5CCN(C(C)=O)CC5)C4)c3C2)cc1C(F)(F)F` [Example 92, 1-(4-{(S)-3-[6-(6-Methoxy-5-trifluoromethyl-pyridin-3-yl)-5,6,7,8-tetrahydro-pyrido[4,3-d]pyrimidin-4-yloxy]-pyrrolidine-1-carbonyl}-piperidin-1-yl)-ethanone] as the compound, how does the IC50 (PI3K alpha) read?
The IC50 was 2540 nM.

And the IC50 (PI3K delta; enzymatic assay)?
Its IC50 is 9 nM.

Which results are given for `COc1cc(N2CCc3ncnc(O[C@H]4CCN(C(=O)C5CCOC(C)(C)C5)C4)c3C2)cnc1OC` (stereo partly drawn) [Example 24, {(S)-3-[6-(5,6-Dimethoxy-pyridin-3-yl)-5,6,7,8-tetrahydro-pyrido[4,3-d]pyrimidin-4-yloxy]-pyrrolidin-1-yl}-(2,2-dimethyl-tetrahydro-pyran-4-yl)-methanone]?
IC50 (PI3K alpha): 374 nM; IC50 (PI3K delta; enzymatic assay): 9 nM

For `COc1ncc(N2CCc3ncnc(O[C@H]4CCN(C(=O)c5conc5C)C4)c3C2)cc1C` [Example 32, {(S)-3-[6-(6-Methoxy-5-methyl-pyridin-3-yl)-5,6,7,8-tetrahydro-pyrido[4,3-d]pyrimidin-4-yloxy]-pyrrolidin-1-yl}-(3-methyl-isoxazol-4-yl)-methanone], which IC50 (PI3K alpha) is on record?
Its IC50 is 2040 nM.

What about the IC50 (PI3K delta; enzymatic assay) of the same compound?
Its IC50 is 23 nM.

Which IC50 (PI3K alpha) does the source give for `COc1ncc(N2CCc3ncnc(N[C@H]4CCN(C(=O)c5cocn5)C4)c3C2)cc1C` [Example 79, {(S)-3-[6-(6-Methoxy-5-methyl-pyridin-3-yl)-5,6,7,8-tetrahydro-pyrido[4,3-d]pyrimidin-4-ylamino]-pyrrolidin-1-yl}-oxazol-4-yl-methanone] here?
Its IC50 is 781 nM.

What about the IC50 (PI3K delta; enzymatic assay) of the same compound?
The IC50 was 17 nM.

With `COc1ncc(N2CCc3ncnc(O[C@H]4CCN(C(=O)c5ccoc5)C4)c3C2)cc1C` [Example 11, Furan-3-yl-{(S)-3-[6-(6-methoxy-5-methyl-pyridin-3-yl)-5,6,7,8-tetrahydro-pyrido[4,3-d]pyrimidin-4-yloxy]-pyrrolidin-1-yl}-methanone] as the compound, how does the IC50 (PI3K alpha) read?
Its IC50 is 1200 nM.

And the IC50 (PI3K delta; enzymatic assay)?
The IC50 was 11 nM.

With `CCC(=O)N1CC[C@H](Oc2ncnc3c2CN(c2cnc(OC)c(C(F)(F)F)c2)CC3)C1` [Example 63, 1-{(S)-3-[6-(6-Methoxy-5-trifluoromethyl-pyridin-3-yl)-5,6,7,8-tetrahydro-pyrido[4,3-d]pyrimidin-4-yloxy]-pyrrolidin-1-yl}-propan-1-one] as the compound, how does the IC50 (PI3K alpha) read?
Its IC50 is 791 nM.

And the IC50 (PI3K delta; enzymatic assay)?
Its IC50 is 51 nM.

For `O=C(C1CCOCC1)N1CC[C@H](Oc2ncnc3c2CN(c2cnc4ccccc4c2)CC3)C1` [Example 60, [(S)-3-(6-Quinolin-3-yl-5,6,7,8-tetrahydro-pyrido[4,3-d]pyrimidin-4-yloxy)-pyrrolidin-1-yl]-(tetrahydro-pyran-4-yl)-methanone], which IC50 (PI3K alpha) is on record?
The IC50 was 3330 nM.

What about the IC50 (PI3K delta; enzymatic assay) of the same compound?
Its IC50 is 45 nM.
